Key:
rat Cyp2b1 = target: T1, rat Cyp2b1 (Rattus norvegicus, UniProt P00176); test: Recombinant rat Cyp phenotype profiling, 2B1; format: in vitro ADME; details: 60 min
T1 construct: purchased BD Gentest; host or cells: baculovirus infected insect cells
Protocol: (§1) Identification of the drug metabolizing enzymes (DMEs) of A-998679 was studied in cDNA expressed recombinant enzymes prepared from baculovirus infected insect cells over-expressing rat Cyp isoforms (BD Gentest, Woburn, MA) as listed in Table 2. Incubations were conducted in duplicate using Supersomes. The incubation mixture contained 100 pmol/ml of enzymes, except for Cyp1a1 (200 pmol/ml), 0.1 or 0.21 μM of [^3H]A-998679 in 100 mM phosphate buffer (pH 7.4). Reactions were initiated with the addition of NADPH at a final concentration of 1 mM and incubated at 37°C for 60 min. At the end of the incubation period, the incubations were terminated by the addition of acetonitrile/ethanol (50/50, v/v) solution. Insect control samples lacking expressed enzyme were used as negative control. The degree of metabolism of A-998679 was assessed by percent of parent remaining using the radio-HPLC method described below.
(§2) Radiolabeled components from the above assays were profiled following separation by HPLC with on line radioflow detector. The system consisted of an Agilent 1100 Series quaternary pump and autosampler connected to a Packard 500TR flow scintillation detector. The data were processed using the Radiomatic™ Flo-one® software v3.65. The scintillant (Perkin Elmer FLO-SCINT™ III) flow was maintained at 3 ml/min. […]

[1] = system: multidrug resistance-associated protein (Mrp3); test: Mrp3 expression in rat liver; format: in vivo; details: treated rats; data not shown
Protocol: (§3) All animal experiments were conducted in accordance with the Guiding Principles in the Use of Animals in Toxicology (http://www.toxicology.org/ai/air/air6.asp) and were approved by Abbott's Institutional Animal Care and Use Committee (IACUC). Male Sprague-Dawley rats [Crl:CD®(SD)IGS BR], weighing ~250 g at study initiation were obtained from Charles River Laboratories, Inc. (Wilmington, MA). Rats were housed singly in ventilated, stainless steel, wire-bottom hanging cages and fed non-certified Rodent Chow (Harlan Labs, Madison, WI), and water ad libitum and acclimated for at least 5 days after arrival. […] Serum clinical chemistry parameters were quantified using an Aeroset Clinical Chemistry Analyzer (Abbott Laboratories, Abbott Park, IL) and included alanine amino transferase (ALT), aspartate amino transferase (AST), gamma glutamyltransferase (GGT), and alkaline phosphatase (ALP) activities.
Frozen liver or jejunum were immediately added to 4 ml of TRIzol reagent (Invitrogen Life Technologies) and homogenized using a Polytron 300D homogenizer (Brinkman Instruments, Westbury, NY). […] Nucleic acid concentration was determined by OD 260 nm (Smart-Spec, Bio-Rad Laboratories, Hercules, CA), and RNA integrity was evaluated using an Agilent 2100 bioanalyzer (Agilent Technologies, Foster City, CA). […]

rat Cyp1a1 = target: T2, rat Cyp1a1 (Rattus norvegicus, UniProt P00185); test: Recombinant rat Cyp phenotype profiling, 1A1; format: in vitro ADME; details: recombinant rat Cyp 1A1 (200 pmol/ml), 60 min
T2 construct: purchased BD Gentest; host or cells: baculovirus infected insect cells
Protocol: as §1, §2

Cyp1a1 = test: Immunohistochemistry of Cyp1a1 in rat liver; format: in vivo; details: 5 days of treatment; not detectable in control livers
Protocol: as §3, with “arrival. Rats were randomly assigned to various treatment groups (3 rats/group) and were dosed once daily by oral gavage with vehicle (0.2% hydroxypropylmethylcellulose at a dose volume of 10 ml/kg) or with 30, 100, or 200 mg/kg of A-998679. All rats were fasted overnight after their last dose, weighed and sacrificed under isoflurane anesthesia.” for “arrival.”, “activities. […]” for “activities.”

T2 sequence (P00185 whole entry): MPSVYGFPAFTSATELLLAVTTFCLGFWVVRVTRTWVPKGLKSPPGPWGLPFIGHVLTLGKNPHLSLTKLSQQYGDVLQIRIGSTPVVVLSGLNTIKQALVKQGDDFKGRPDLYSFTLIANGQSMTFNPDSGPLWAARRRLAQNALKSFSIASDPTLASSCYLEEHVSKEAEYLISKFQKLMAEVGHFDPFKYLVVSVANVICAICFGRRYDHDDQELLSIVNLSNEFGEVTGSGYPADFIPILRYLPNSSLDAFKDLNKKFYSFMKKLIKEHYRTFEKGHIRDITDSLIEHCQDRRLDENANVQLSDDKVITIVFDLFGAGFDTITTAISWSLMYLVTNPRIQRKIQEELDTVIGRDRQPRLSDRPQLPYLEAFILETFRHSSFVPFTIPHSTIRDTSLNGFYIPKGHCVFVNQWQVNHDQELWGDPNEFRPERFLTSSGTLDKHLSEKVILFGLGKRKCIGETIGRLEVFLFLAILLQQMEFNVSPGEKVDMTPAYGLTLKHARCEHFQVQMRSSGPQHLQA
T1 sequence (P00176 whole entry): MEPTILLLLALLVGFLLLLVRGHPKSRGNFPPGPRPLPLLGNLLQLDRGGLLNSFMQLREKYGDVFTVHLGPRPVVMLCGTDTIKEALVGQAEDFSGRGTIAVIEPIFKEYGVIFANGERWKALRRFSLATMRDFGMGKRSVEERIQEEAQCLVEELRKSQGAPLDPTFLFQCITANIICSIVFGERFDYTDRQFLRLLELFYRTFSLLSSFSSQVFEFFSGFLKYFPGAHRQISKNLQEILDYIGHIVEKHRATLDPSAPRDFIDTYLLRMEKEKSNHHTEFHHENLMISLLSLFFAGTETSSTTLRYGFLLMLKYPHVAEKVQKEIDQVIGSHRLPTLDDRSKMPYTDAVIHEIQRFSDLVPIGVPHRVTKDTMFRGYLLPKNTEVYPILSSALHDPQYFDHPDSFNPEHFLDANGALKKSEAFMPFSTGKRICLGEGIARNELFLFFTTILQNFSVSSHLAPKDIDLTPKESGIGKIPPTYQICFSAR

% parent remaining (rat Cyp2b1; recombinant rat Cyp 2B1, 0.10 μM): 87.0% | % parent remaining (rat Cyp2b1; recombinant rat Cyp 2B1, 0.21 μM): 34.5% | % parent remaining (rat Cyp1a1; 0.10 μM): 0% | % parent remaining (rat Cyp1a1; 0.21 μM): 0% | Cyp1a1 immunostaining in rat liver (Cyp1a1): moderate levels in centrilobular regions
Compound: N#Cc1cccc(-c2noc(-c3cccnc3)n2)c1 [A-998679, 3-(5-pyridin-3-yl-1,2,4-oxadiazol-3-yl) benzonitrile]
expression of Mrp3 in liver [1]: increased expression
